US10982188B2, “Synthetic retina” (University of Newcastle Upon Tyne, priority 2014, dated 2021)

How the values were obtained:
[1] = tested on: hESC and hiPSC derived photoreceptors; test: Calcium imaging (Fura-2) of cGMP response; assay type: cell-based, human; settings: for effect on cGMP-mediated increase in Ca2+ influx: cobalt chloride and magnesium chloride together in the perfusate with cGMP
Description: In order to determine whether developing photoreceptors contained the machinery necessary for transduction, the inventors plated differentiating EBs onto poly-L-ornithine and laminin-coated 6 well plates for 15 days prior to optical recording using calcium imaging. Membrane disks in the outer segment of native photoreceptors contain a photopigment (for example the rod-specific pigment rhodopsin consists of opsin+retinal), and the cell membrane in outer segments contains cyclic guanosine monophosphate (cGMP)-gated cationic (sodium and calcium) channels. In the dark, cGMP levels are high and the photoreceptors are maintained in a depolarised state via influx of Na^+ and Ca^2+ through these cGMP-gated channels which are in an open state. Exposure to light causes the retinal part of the photopigment to isomerise to trans-retinal, leading to activation of multiple G-proteins and phosphodiesterase 6 which in turns degrades cGMP, resulting in closure of the channels and membrane hyperpolarisation. To test if the hESC and hiPSC derived photoreceptors respond in a similar manner, on day 30, 45 and 60 of differentiation, cells were exposed to flashes of red, green, blue or white light, or to membrane-permeable 8-br-cGMP. As 8-br-cGMP opens the cationic (Na^+ and Ca^2+) channel associated with phototransduction, it triggers a Ca^2+ influx in photoreceptors known as the inward dark current. Loading cells with the fluorescent Ca^2+ indicator Fura-2 therefore enables the visualisation of changes in intracellular calcium associated with opening or closing of the cGMP-gated channel, with a decrease in fluorescence representing an increase in calcium influx.
EBs were dark adapted for 24 hours prior to recording then loaded with Fura-2 AM (10 μM, Molecular probes/Invitrogen) for 45 min at 37° C. (95% O2/5% CO2) followed by perfusion (1 ml/minute) with oxygenated artificial Cerebrospinal Fluid (aCSF; 118 mM NaCl, 25 mM NaHCO3, 1 mM NaH2PO4, 3 mM KCl, 1 mM MgCl2, 2 mM CaCl2, 10 mM glucose) for one hour. Cells were exposed to 8-br-cGMP (cGMP, 1 mM, Sigma) in aCSF. Control recordings were performed with aCSF alone or with 8-br-cGMP in CaCl2-free aCSF supplemented with calcium channel blocker Cobalt (II) chloride (CoCl2, 4 mM, AnalaR) and 10 mM HEPES. Fluorescence was monitored using an inverted Olympus IX71 microscope and images (excitation 380 nm, 800 ms exposure) acquired using a Quantem 512SC camera (Photometrics) and MetaMorph Software (Molecular Devices). For each stimulation 20 seconds baseline activity was recorded. Fluorescence change was analysed using the formula % Δl/lo=(l1−lo)×100/lo, where lo was the average cellular fluorescence during baseline activity and l1 following stimulation. Significance was determined using a student's t-test (P<0.01).

IGF-IR = target: T1, IGF-IR (Homo sapiens, UniProt P08069); test: IGF-1 receptor signalling interference: optic vesicle/optic cup formation and survival of EBs; assay type: cell-based; settings: for optic vesicle production from differentiating EBs: 7 μM
T1 construct: endogenous in cells; host or cells: hESC (line H9, WiCell)-derived embryoid bodies
T1 sequence (P08069 31-1367): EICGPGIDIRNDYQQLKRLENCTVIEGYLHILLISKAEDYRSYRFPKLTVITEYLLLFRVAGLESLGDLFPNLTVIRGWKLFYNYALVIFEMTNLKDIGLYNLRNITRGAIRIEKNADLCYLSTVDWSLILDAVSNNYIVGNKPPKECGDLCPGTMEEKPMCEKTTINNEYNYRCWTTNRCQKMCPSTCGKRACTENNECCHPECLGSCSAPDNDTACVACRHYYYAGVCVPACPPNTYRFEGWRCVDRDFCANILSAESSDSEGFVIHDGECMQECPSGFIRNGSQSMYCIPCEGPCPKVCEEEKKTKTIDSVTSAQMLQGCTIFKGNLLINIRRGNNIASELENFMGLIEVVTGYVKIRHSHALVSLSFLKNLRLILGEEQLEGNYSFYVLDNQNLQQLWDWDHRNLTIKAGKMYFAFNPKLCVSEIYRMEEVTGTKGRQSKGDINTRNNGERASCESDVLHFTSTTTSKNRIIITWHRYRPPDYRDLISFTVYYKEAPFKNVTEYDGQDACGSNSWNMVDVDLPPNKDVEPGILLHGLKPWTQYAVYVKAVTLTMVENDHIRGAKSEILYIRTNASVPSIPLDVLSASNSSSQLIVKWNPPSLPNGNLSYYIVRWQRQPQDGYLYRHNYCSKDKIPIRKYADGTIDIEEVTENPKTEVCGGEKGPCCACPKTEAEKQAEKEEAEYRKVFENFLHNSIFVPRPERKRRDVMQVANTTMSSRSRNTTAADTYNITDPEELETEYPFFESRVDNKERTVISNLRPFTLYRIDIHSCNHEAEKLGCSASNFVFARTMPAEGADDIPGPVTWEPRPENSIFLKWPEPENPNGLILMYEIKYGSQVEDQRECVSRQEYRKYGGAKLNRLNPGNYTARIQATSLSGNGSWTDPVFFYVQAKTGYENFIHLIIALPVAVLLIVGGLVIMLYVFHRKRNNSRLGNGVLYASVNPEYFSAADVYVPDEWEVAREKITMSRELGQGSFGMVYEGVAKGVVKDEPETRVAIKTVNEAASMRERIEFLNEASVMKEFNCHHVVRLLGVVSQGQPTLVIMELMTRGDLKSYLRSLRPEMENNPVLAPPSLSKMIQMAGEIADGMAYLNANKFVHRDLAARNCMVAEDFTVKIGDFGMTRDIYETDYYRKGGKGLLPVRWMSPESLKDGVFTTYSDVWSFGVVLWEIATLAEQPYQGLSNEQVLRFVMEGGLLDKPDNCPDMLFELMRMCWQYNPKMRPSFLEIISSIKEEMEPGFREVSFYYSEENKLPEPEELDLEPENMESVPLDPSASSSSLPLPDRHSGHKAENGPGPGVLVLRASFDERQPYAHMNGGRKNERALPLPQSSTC
Procedure: To confirm the contribution of the IGF-1 signalling pathway in this process, the inventors differentiated cells in the presence of a pharmacological inhibitor of the IGF-IR (pi(IR)) or a neutralising antibody directed against the IGF-II receptor, IGF-IIR ((n)IIR), in the presence (+) or absence (−) of IGF-1 supplementation (FIG. 5I, J).
hESCs were expanded and differentiated as described. For interference of IGF-1 receptor signalling an IGF-IR-specific pharmacological inhibitor ([7 μM], AG1024, Stratech) was added to differentiation media for the entire differentiation period. To block/neutralise IGF-II receptor signalling, media was supplemented with goat IgG anti-human IGF-IIR antibody ([0.25 μg/ml], AF2447, R&D) throughout differentiation.

differentiating hESCs = test: Optic vesicle and optic cup formation from EBs differentiated in 3D with IGF-1; assay type: cell-based, human
Procedure: hESC (line H9, WiCell) and hiPSC lines Clone 4^25 and NHDF^26 were expanded and differentiated as previously described.^14 For IGF-1 treatment, cultures were differentiated in VNIM media^14 supplemented with recombinant human IGF-1 (5 ng/ml, Sigma) until day 37, then in basal Knockout serum-free media^14 with 10 ng/ml IGF-1 until day 90 (FIG. 1A). Control cultures were differentiated in parallel in the absence of IGF-1. Time-lapse capture of culture morphology was achieved using a BioStation CT (Nikon).

[2] = tested on: human pluripotent stem cells; test: Modified differentiation media, mTeSR1 feeder-free adapted cells: optic cup formation; assay type: cell-based; settings: 2 and 3 fold increase in IGF-1 concentration, FIG. 15
Procedure: Human pluripotent stem cells were grown under feeder free conditions the effect of freeder free conditions on their differentiation potential to synthetic retina investigated.
mTeSR1 media (Stem Cell Technologies) is a highly specialised serum-free and complete media designed for feeder-free culture. Cells to this feeder-free technique and subjected to differentiation studies using the IGF-1 factor as discussed above.

**Q.** How did the “Fura-2 fluorescence change (Ca2+ influx)” value ([1]; IGF-1 treated cultures, 1 mM in aCSF) turn out when `Nc1nc2c(nc(Br)n2[C@@H]2O[C@@H]3COP(=O)(O)O[C@H]3[C@H]2O)c(=O)[nH]1` [8-br-cGMP] was run?
**A.** decreased fluorescence

**Q.** What does the source list for `CC(C)(C)c1cc(C=C(C#N)C#N)cc(Br)c1O` [(pi)IR]?
**A.** viability of cultures (IGF-IR; after day 45, with and without exogenous IGF-1): did not remain viable; optic cups (IGF-IR; day 45): undetectable; optic vesicle production from differentiating EBs (IGF-IR; day 45, absence of IGF-1 ((pi)IR-), p=0.021): significantly reduced; optic vesicle production from differentiating EBs (IGF-IR; day 45, presence of IGF-1 ((pi)IR+), p=0.023): significantly reduced; survival of EBs (IGF-IR; days of differentiation, with and without IGF-1): ≤ 50 days

**Q.** With `[Cl-].[Cl-].[Co+2]` [cobalt chloride, Cobalt (II) chloride] as the molecule, how does the “effect on cGMP-mediated increase in Ca2+ influx” value [1] read?
**A.** abolished

**Q.** `[Cl-].[Cl-].[Mg+2]` [magnesium chloride] was tested. Which “effect on cGMP-mediated increase in Ca2+ influx” value [1] did it give?
**A.** abolished

**Q.** What does the source list for “IGF-1: recombinant human IGF-1 (Sigma), single-chain 70-amino-acid protein, SEQ ID NO:1”?
**A.** frequency of optic vesicle formation (differentiating hESCs; IGF-1 in differentiation media vs control, FIG. 5I): significantly increased; optic vesicle formation relative to control levels (differentiating hESCs; by day 15): double; increase in optic vesicle and optic cup formation vs control (differentiating hESCs; by day 60): 4 fold; EBs with optic cup formation (differentiating hESCs; day 60, FIG. 5J, control 3.9%): 17.4%; cGMP respondent cultures ([1]; by day 90, 8-br-cGMP stimulation): 45.3%; cGMP respondent cultures ([1]; day 45 of differentiation, 8-br-cGMP stimulation): 24.1%; formation of optic cups on increasing concentration [2]: did not cause any significant changes
